Assays:
[1] = biological target: T1, NQO1 WT (NAD(P)H:quinone oxidoreductase 1) (Homo sapiens, UniProt P15559, P187S); test: NADH-menadione reductase assay, absorbance at […] nm; format: biochemical
T1 construct: codon-optimised gene in pET28a, E. coli; FAD-containing homodimer

[2] = biological target: T2, NQO1 WT (NAD(P)H:quinone oxidoreductase 1) (Homo sapiens, UniProt P15559); test: NADH-menadione reductase assay, absorbance at […] nm; format: biochemical
T2 construct: codon-optimised gene in pET28a, E. coli; FAD-containing homodimer

[3] = biological target: T2, NQO1 WT (NAD(P)H:quinone oxidoreductase 1); test: ThermoFAD thermal shift; format: binding; details: 2 mM BPPSA, 50 mM HEPES pH 7.0
[4] = biological target: T1, NQO1 WT (NAD(P)H:quinone oxidoreductase 1); test: ThermoFAD thermal shift; format: binding; details: 2 mM BPPSA, 50 mM HEPES pH 7.0
[5] = biological target: T2, NQO1 WT (NAD(P)H:quinone oxidoreductase 1); test: isothermal titration calorimetry; format: binding; details: read-out: dissociation constant
Description: (§1) isothermal titration calorimetry on NQO1 WT (NAD(P)H:quinone oxidoreductase 1) | dissociation constants for the binding of BPPSA to the wild‐type and P187S variant

[6] = biological target: T1, NQO1 WT (NAD(P)H:quinone oxidoreductase 1); test: isothermal titration calorimetry; format: binding; details: read-out: dissociation constant
Description: as §1

[7] = biological target: T2, NQO1 WT (NAD(P)H:quinone oxidoreductase 1); test: crystal structure, […] Å; format: binding; details: co-crystal with BPPSA; FAD in all four chains

SMILES | IC50 [1] [µM] | IC50 [2] [µM] | increase in melting temperature [3] [°C] | increase in melting temperature [4] [°C] | Kd [5] [µM] | Kd [6] [µM] | crystal structure, 2.76 Å [7]
O=S(=O)(Nc1ccccc1Br)N1CCCC1 [BPPSA, N‐(2‐bromophenyl)pyrrolidine‐1‐sulfonamide] | 26.2 ± 1.2 | 8.6 ± 1.1 | 1 | 2.5 | 7.95 ± 0.8 | 20 ± 0.41 | 
Cc1cc2nc3c(=O)[nH]c(=O)nc-3n(C[C@H](O)[C@H](O)[C@H](O)COP(=O)(O)OP(=O)(O)OC[C@H]3O[C@@H](n4cnc5c(N)ncnc54)[C@H](O)[C@@H]3O)c2cc1C [FAD] |  |  |  |  |  |  | Clear residual electron density was observed for FAD bound to each of the four chains

— article PMC7027498, “A small molecule chaperone rescues the stability and activity of a cancer‐associated variant of NAD(P)H:quinone oxidoreductase 1 in vitro” (Febs Letters, 2019)
